Source: US20160082036A1, “HYDROXYALKYL STARCH FOR THE TREATMENT OF CANCERS BY REDUCTION OF TUMOR GROWTH RATES” (Fresenius Kabi Deutschland GmbH, priority 2012, published 2016)

Legend:
[1] = set-up: species or system NMRI:nu/nu mice; conditions: mouse, in vivo
Procedure: (§1) Hydroxyethyl starch compounds were obtained from Fresenius Kabi Deutschland GmbH on Dec. 7, 2012 and were stored at room temperature until use. The compounds each were dissolved in saline to obtain 10% w/v solutions. The application was 400 μl/20 g mouse body weight for saline and HES solutions, while Docetaxel was given in a volume of 10 ml/kg as slow bolus. The route of administration was intravenously for all mice.
(§2) Adult female NMRI:nu/nu mice (TACONIC Europe, Lille Skensved, Denmark) bred in the own (EPO) colony were used throughout the study. At the start of experiment they were 6-8 weeks of age.
(§3) In study 3 mice were sacrificed when the tumor size reached more than 1.5 cm^3, or the tumors ulcereted. Study 3 was finished when the mean TV was in most groups larger than 1.0 cm^3.
On the day of necropsy mice were sacrificed by cervical dislocation and inspected for gross organ changes.

[2] = system: human breast cell carcinoma line MT-3; assay: Example 5: MT-3 xenograft tumor growth, three studies with different HES types; assay type: in vivo
Procedure: In another set of three studies which were performed in analogy to the studies described above in Examples 1 and 2, more different HES types have been analysed in the same setting using the MT3 cell line mouse model.
Docetaxel (Taxotere®) was obtained from Sanofi-Aventis Deutschland GmbH, (Lot CHB D9C895; Berlin, Germany) and was stored in the dark at −20° C. until use. The injection solution was prepared immediately before use by dissolving in saline solution.
as §1, §2
The MT-3 cell line was used for subcutaneous (s.c.) xenotransplantation in immune deficient female NMRI:nu/nu mice. The MT-3 breast carcinoma cell line was obtained from the tumour bank of the National Cancer Institute of the former USSR, WONZ, Moscow.
The cells are cryo-preserved. Cells were thawed, expanded by in vitro culture and transplanted s.c. as cell suspension in female NMRI:nu/nu mice.
The number of 5×10^6 tumour cells was transplanted s.c into the flank of each mouse. The animals were monitored for tumour growth and when tumours were palpable, generally between day 7 and day 10 after transplantation, mice were randomised into the treatment groups with 15 mice each. Day 0 is defined as the day of first treatment.
Individual tumour diameters were measured twice weekly with a calliper-like instrument. Tumour volumes were calculated according to V=(length×(width)^2)/2. […] The relative tumour volume (RTV) and the treated to control (T/C RTV) values in percent were calculated for each measurement day in relation to V values at day 0.
as §3
Mice were treated with i.v. injection of Docetaxel (Taxotere®) at day 0 and 14 at a dose of 40 mg/kg and with the hydroxyethyl starch compounds (20 ml/kg) once weekly.
In study 1 all mice developed tumours after s.c. transplantation of 5×10^6 MT-3 cells up to a size of 0.046±0.015 cm^3 within 7 days. Mice were treated intravenously with a dose of 40 mg/kg Docetaxel (Taxotere®) at days 0 and 14, whereas four different HES specifications in saline (containing each 10% w/v) were injected in a volume of 20 ml/kg i.v. weekly (day 0, 7, 14). Saline was injected once a week (20 ml/kg). All groups were treated during the whole experimental period accordingly to the planned schedule. The tumour of control mice in study 1 grew up to a volume of 1.1±0.6 cm^3.
In study 2 all mice developed tumours after s.c. transplantation of 5×10^6 MT-3 cells up to a size of 0.081±0.033 cm^3 within 9 days. Mice were treated intravenously with a dose of 40 mg/kg docetaxel at days 0 and 14, whereas four different HES specifications in saline (containing each 10% w/v) were injected in a volume of 20 ml/kg i.v. weekly (day 0, 7, 14). Saline was injected once per week (20 ml/kg). All groups were treated during the whole experimental period accordingly to the planned schedule. The tumour of control mice grew up until day 18 to a volume of 1.48±1.04 cm^3.
In study 3 all mice developed tumours after s.c. transplantation of 5×10^6 MT-3 cells up to a size of 0.059±0.018 cm3 within 7 days. […]

[3] = Example 2: body weight and blood parameters of MT-3 tumor-bearing mice; assay type: in vivo, NMRI:nu/nu mice
Procedure: Summary: Mice were either treated with a single i.v. injection of docetaxel (Taxotere®) at a dose of 25 mg/kg or with the plasma expander Voluven® (20 ml/kg) or with HES 100/1.0 (approx. 740 mg/kg) dissolved in saline/EtOH to determine tumor growth and body weight over the course of the experiment.
(§4) Adult female NMRI:nu/nu mice (TACONIC Europe, Lille Skensved, Denmark) bred in the own (EPO) colony were used throughout the study.
(§5) The application volume was 10 ml/kg (approx. 200 μl/20 g mouse) mouse body weight for vehicle, HES 100/1.0 and docetaxel and 20 ml/kg for Voluven®. The route of administration was by intravenous (i.v.) injection into the tail vein.
(§6) Individual body weights of mice were determined two times weekly and mean body weight per treatment group.
(§7) Blood samples were drawn from the retro-orbital sinus under iso-flurane anaesthesia three days after the treatment. Blood samples of 50-100 μl were taken into tubes prepared with EDTA for haematological parameters from a subset of each group (generally 30-50%). The following parameters were determined: total leucocyte count (WBC), erythrocyte count (RBC), haemoglobin (HGB), haematocrit (HCT), mean corpuscular volume (MCV), mean corpuscular haemoglobin (MCH), mean corpuscular haemoglobin concentration (MCHC) and platelet count (PLT) using a Coulter Counter instrument.
(§8) Statistical evaluation of was performed with the U-test of Mann and Whitney using the Windows program […] 6. A significance level of p<0.05 was used.

[4] = Example 1: body weight and blood parameters of MT-3 tumor-bearing mice; assay type: in vivo, NMRI:nu/nu mice
Procedure: Summary: Mice were either treated with a single i.v. injection of docetaxel (Taxotere®) at a dose of 25 mg/kg or with the plasma expander Voluven® (20 ml/kg) or with “HES 100/1.0” (approx. 740 mg/kg) dissolved in saline to determine tumor growth and body weight over the course of the experiment.
as §4, §5, §6, §7, §8

[5] = blood drawn three days after single i.v. treatment

CC(=O)O[C@@]12CO[C@@H]1C[C@H](O)[C@@]1(C)C(=O)[C@H](O)C3=C(C)[C@@H](OC(=O)[C@H](O)[C@@H](NC(=O)OC(C)(C)C)c4ccccc4)C[C@@](O)([C@@H](OC(=O)c4ccccc4)[C@H]21)C3(C)C [Docetaxel]
body weight (in words) [1]: moderate body weight loss
general toxicity, clinical sign (in words) ([1]; iv): apathy
tumour growth inhibition effect (in words) ([2]; studies 1 to 3, compared to saline control, FIGS. 7, 9, 11): strong inhibitory effect on tumour growth
RTV T/C ([2]; study 1): 14.4%
inhibition of tumour growth ([2]; study 1): more than 85%
RTV T/C ([2]; study 2): 16.9%
inhibition of tumour growth ([2]; study 2): 83%
RTV T/C ([2]; study 3, at day 7): 8.8%
inhibition of tumour growth ([2]; study 3, at day 7): 91%
body weight development (in words) ([3]; after single i.v. treatment, FIG. 1): Body weight loss
Platelets × 10^6 at day 11 [3, 5]: 1500 ± 156 × 10^6
WBC × 10^6 at day 11 [3, 5]: 4.80 ± 0.58 × 10^6
body weight development (in words) ([4]; after single i.v. treatment, FIG. 3): Body weight loss
leucopenia (in words) ([4]; after single i.v. treatment, table 5): slight but significant leucopoenia
Platelets × 10^6 at day 10 [4, 5]: 1418 ± 85 × 10^6
WBC × 10^6 at day 10 [4, 5]: 3.09 ± 0.76 × 10^6
effect on platelet counts (in words) ([4]; compared to saline+EtOH treated group): no significant effect on the platelet counts
